Assay: gradient 5% acetonitrile 3 min, to 50% in 2 min, to 85% in 15 min, held 3 min, 100 µL/min
Conditions: column: Zorbax Extend-C18 2.1 x 50 mm; eluents: water / acetonitrile, 0.1% formic acid
Outline: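 In both positive and negative ionization mode, a quadrupole time-of-flight mass spectrometer coupled to HPLC analyzed pure standards run in mixtures of ~100 molecules. The Zorbax Extend-C18 column (2.1 × 50 mm, 1.8 μm) was operated at 100 μL/min with water and acetonitrile, each containing 0.1% formic acid. The dead volume was 40 μL and the dwell volume 900 μL. Retention time came from adduct peaks that were computationally picked and individually inspected by hand.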

| SMILES | RP-LC retention time [s] |
| --- | --- |
| Cc1cc(C)c2c(N3CCOCC3)nc(C(=O)N3CCN(c4ccccc4)CC3)nc2n1 | 653 |
| Cc1cc2nn(CC(=O)N3CCC(C)CC3)c(=O)n2c(-c2cccc(Cl)c2)n1 | 894 |
| Cc1ccc2[nH]cc(CCNC(=O)CC3CCN(C(=O)C4CCCCC4)CC3)c2c1 | 850 |
| CC(C)C(=O)N1CC[C@H](CO)[C@H](NC(=O)C2CC2)C1 | 583 |
| CCCCN(CC)CCNC(=O)C1CCCN(c2ncnc3c2nc2n3CCCCC2)C1 (centres undefined) | 614 |
| CC(C)(C)NC(=O)CCc1c(-c2ccccc2)nc2ccccn12 | 632 |
| CNC(=O)c1ccc2c(c1)CCN2C(=O)C(C)C | 644 |
| Cc1ccc(CNC(=O)CCc2nnc3c4cc(-c5ccccc5)nn4ccn23)o1 | 749 |
| CSc1nnc(-c2nn(C)c3c2CN(C(=O)c2ccccc2F)CC3)n1C | 697 |
| Cc1ccc2c(c1)N(S(C)(=O)=O)CCC(C(=O)N1CCCCC1)O2 (centres undefined) | 862 |
| Cc1onc(C(=O)N2CCc3c(c(-c4nncn4C)nn3C)C2)c1Cn1cc(Cl)cn1 | 649 |
| CN(CC1CCOC1)C(=O)NCc1ccc(F)cc1 (centres undefined) | 669 |
| COc1ccc(C)cc1NC(=O)Cn1nc2cc(-c3ccccc3)nc(C)n2c1=O | 752 |
| CN(C)c1ccc(C(CNC(=O)c2ccc(Br)o2)N2CCOCC2)cc1 (centres undefined) | 626 |
| COc1cc2c(cc1OC)C1C(C(=O)NCCCN3CCCCCC3)c3ccccc3C(=O)N1CC2 (centres undefined) | 617 |
| CCC1CCCCN1CCCNC(=O)CCc1cc2ccc(C)cc2[nH]c1=O (centres undefined) | 596 |
| COc1ccc(Nc2cc(C(=O)N3CCCC3)nc3ccc(C)cc23)cc1 | 659 |
| CCOc1ccc(S(=O)(=O)N2CCC(C(=O)NCc3csc(-c4ccccc4)n3)CC2)cc1 | 978 |
| CCC(C)NC(=O)c1ccc(CN2CCN(Cc3ccc(F)cc3)C(=O)C2=O)cc1 (centres undefined) | 739 |
| Cc1sc(NC(=O)CCc2ccccc2)nc1-c1ccc2c(c1)NC(=O)CO2 | 888 |
| O=C(CC1CCCCN1S(=O)(=O)c1ccccc1)Nc1cc(F)ccc1F (centres undefined) | 887 |
| CCc1ccc(NC(=O)C2CCN(S(=O)(=O)c3cn(CC)cn3)CC2)cc1 | 794 |
| COC(=O)CSCC(=O)Nc1nccs1 | 610 |

| SMILES | RP-LC retention time [s] |
| --- | --- |
| COc1ccc(-n2c(CN3CCN(C(=O)Nc4cc(F)ccc4F)CC3)nc3cccnc32)cc1 | 689 |
| CN=C(NC#N)Nc1ccc(C2=NNC(=O)CC2C)cc1 (centres undefined) | 672 |
| O=C(CC1COc2ccccc2NC1=O)NCCc1ccc(Cl)cc1 (centres undefined) | 910 |
| Cn1c(C(=O)N2CCN(c3ccccc3)CC2)cc2c(=O)oc3ccccc3c21 | 905 |
| COc1ccc(OC)c(S(=O)(=O)N2CCCC(C(=O)NCc3ccccn3)C2)c1 (centres undefined) | 615 |
| CCn1cc(S(=O)(=O)N2[C@H]3CC[C@@H]2c2cnc(-c4ccc(F)cc4)nc2C3)cn1 | 900 |
| O=C(Cn1cnc2nc(N3CCCC(C(=O)NC4CC4)C3)sc2c1=O)NC1CCCC1 (centres undefined) | 628 |
| CCOC(=O)C1CCN(C(=O)c2nc(N3CCCCC3)c3c(C)cc(C)nc3n2)CC1 | 595 |
| Cn1c(=O)sc2cc(S(=O)(=O)N3CCC(C(=O)NCc4ccccn4)CC3)ccc21 | 611 |
| Cc1cc(C)nc(NS(=O)(=O)c2ccc(NC(=O)c3c(F)cccc3F)cc2)n1 | 653 |
| Oc1ccc(Br)cc1CN1CCN(c2cc(-c3ccncc3)[nH]n2)CC1 | 526 |
| CC1CCCCN1CCCNC(=O)CCC(=O)N1CCc2c(c(C(=O)N3CCCCC3)nn2C)C1 (centres undefined) | 578 |
| O=C(c1ccc(Cl)s1)N1CCN(c2nnc3ccccn23)CC1 | 675 |
| O=C(c1ccccc1Sc1nccnc1Oc1ccccc1)N1CCN(c2ccccn2)CC1 | 691 |
| Cc1ccc2nc3c(C(=O)O)cccn3c(=O)c2c1 | 677 |
| Cc1cc2c(cc1S(=O)(=O)N1CCCC1C(=O)Nc1ccc(F)c(Cl)c1)OC(C)C(=O)N2 (centres undefined) | 866 |
| O=C([C@@H]1C[C@H](F)CN1S(=O)(=O)c1ccc(Cl)cc1)N1CCCCC1 | 852 |
| COc1ccccc1-c1nc(-c2cn(Cc3cccc(F)c3)nn2)no1 | 936 |
| Cc1ccc(NC(=O)C2CCCN(c3nc4ccsc4c(=O)n3Cc3ccc(F)cc3)C2)cc1 (centres undefined) | 1030 |
| CCOC(=O)c1cc(C2CC2)nc2c1c(=O)n(Cc1cccc(Br)c1)c(=O)n2C | 1280 |
| CCc1ccc(CNC(=O)c2cn3c(n2)CCCC3)cc1 | 646 |
| O=S(=O)(c1c[nH]c2ncccc12)N1CCN(c2ccccc2)CC1 | 805 |
| Cc1nn(CC(=O)NCCCN2CCCC2)c(=O)c2nc(-c3ccccc3)sc12 | 620 |

| SMILES | RP-LC retention time [s] |
| --- | --- |
| CCCOc1nc2ccccc2nc1N1CCCC(C(=O)Nc2ccc(Cl)cc2)C1 (centres undefined) | 1210 |
| CCOC(=O)N1CCN(S(=O)(=O)c2ccc(C(=O)Nc3cc(C)no3)cc2)CC1 | 736 |
| COCCN1C(=O)[C@H]2CN(Cc3ccc(F)cc3)C[C@H]2C1=O | 585 |
| c1ccc(N2CCN(Cc3nc(-c4ccc(N5CCSCC5)nc4)no3)CC2)nc1 | 625 |
| Cn1c(=O)oc2ccc(C(=O)Nc3nc4ccccc4s3)cc21 | 843 |
| COC(=O)c1c(C)[nH]c(C(=O)N2CCCC(C(=O)NCc3ccc(N(C)C)cc3)C2)c1C (centres undefined) | 597 |
| COc1cccc(CCC(=O)N2C[C@@H]3C[C@H](NS(C)(=O)=O)[C@H]2C3)c1 | 566 |
| O=C(COc1ccc(F)cc1)NCC1CCC(c2nc3ccccc3[nH]2)CC1 (centres undefined) | 578 |
| Cc1ccc(-c2cc3c(N4CCCC(C(=O)NC5CCCCC5)C4)nccn3n2)c(C)c1 (centres undefined) | 1010 |
| COCCn1cc(C(=O)NC2CCCCCC2)c2nn(-c3ccccc3)c(=O)c-2c1 | 1010 |
| N#CC1(C(=O)NCCc2ccc(Cl)cc2)CC1 | 873 |
| Cc1ccc(Nc2c(-c3ccc(Cl)cc3)nc3nc(C)cc(C)n23)cc1 | 827 |
| O=C(CN1C(=O)CC(c2cccs2)=Nc2ccccc21)Nc1ccc(F)cc1 | 928 |
| CC(C)CN1CC(c2nc(-c3ccccc3)no2)C2(CCCC2)C1 (centres undefined) | 763 |
| CCOC(=O)C1CCN(c2cc3c(cc2NC(=O)c2ccco2)n(C)c(=O)n3C)CC1 | 904 |
| CN1c2ccccc2C(=O)NC12CCN(C(=O)Nc1ccccc1Cl)CC2 | 761 |
| CCCNC(=O)C1CCCN(c2ccc(SCC(=O)Nc3ccc(C)cc3C)nn2)C1 (centres undefined) | 733 |
| Cc1cc(S(=O)(=O)N2CCc3nc(-c4ccc(F)cc4)ncc3C2)ccc1F | 1130 |
| Cc1cc(C(=O)N2CCCCC2)c2c(=O)n(CC(=O)c3c(C)n(C)c4ccccc34)c(=O)n(C)c2n1 | 934 |
| CCCC1c2nccn2CCCN1C(=O)c1c(C)noc1C (centres undefined) | 576 |
| CCn1cc(CCNC(=O)Nc2ccc(C)cc2C)c2cccnc21 | 705 |
| CC(C)c1ccc(-n2ccnc(NC(=O)Nc3cccc(Cl)c3)c2=O)cc1 | 1240 |
| Cc1cccc(-c2nc(C3CCN(S(=O)(=O)c4ccc5c(c4)CCCC5)CC3)no2)c1 | 1410 |

| SMILES | RP-LC retention time [s] |
| --- | --- |
| O=C(c1cn[nH]c1)N1CCC(c2nc(CCOCC3CC3)no2)C1 (centres undefined) | 626 |
| CCNC(=O)c1nc(Nc2ccc(C)cc2)c2ccccc2n1 | 705 |
| COc1ccc(-c2nc3cccc(C)n3c2Nc2ccc(C)cc2)cc1 | 757 |
| CC(C)NC(=O)c1ccc(OCC2CCCN2C(=O)c2ccc(N(C)C)cc2)cc1 (centres undefined) | 799 |
| Cc1nn2c(CNS(=O)(=O)c3cc(C)c(C)cc3C)c(-c3ccccc3)nc2s1 | 941 |
| CCOc1ccc(NC(=O)C2CCCN(c3nccnc3Sc3ccccc3)C2)cc1 (centres undefined) | 1100 |
| Cc1ccc(NC(=O)C2CCCN(c3cn[nH]c(=O)c3)C2)cc1C (centres undefined) | 742 |
| CCCCN1CN(c2ccc(C)cc2)c2ncccc2S1(=O)=O | 1110 |
| Cc1cnc(C(=O)N2CC(n3cc(COc4ccncc4)nn3)C2)cn1 | 553 |
| COc1ccc(OCC(=O)N2CCN(c3cc(C(C)C)n4cnnc4n3)CC2)cc1 | 619 |
| COc1ccc(C2Cn3nnc(-c4nc(-c5cccc(C(F)(F)F)c5)no4)c3CO2)cc1 (centres undefined) | 1270 |
| COCCn1nc2n(c1=O)CCC1(CC2)CCN(C(=O)C2CC=CC2)CC1 | 658 |
| O=C(NCCN1CCCCC1)c1ccc(-c2ccc(N3CCSCC3)nc2)cc1 | 591 |
| CCNC(=O)Nc1ccc(OCC(=O)NCc2cccc(OC)c2)nc1 | 669 |
| Cc1cc(C)cc(NS(=O)(=O)c2ccc(-c3c(C)noc3C)cc2)c1 | 989 |
| CC(=O)N1CCc2c([nH]c3ccccc23)C12C(=O)N(CCC(C)C)c1ccc(Br)cc12 (centres undefined) | 1040 |
| Cc1cc(C(=O)NC2CCCC2)nn1C | 680 |
| CCCn1c(=O)c(C)nc2cc(-c3noc(C4CC(=O)N(c5ccccc5)C4)n3)ccc21 (centres undefined) | 895 |
| CCn1c(C(=O)N2CCC(C(=O)NCc3cccc(OC)c3)CC2)cc2occc21 | 795 |
| CC(C)NC(=O)N1CCCC(c2cccc(C(=O)NCCCN3CCCCC3)c2)C1 (centres undefined) | 623 |

Reference: the METLIN SMRT retention time set (Domingo-Almenara et al. 2019)
